# Data reported in patent US20060004088A1, “Furan derivatives for preventing and curing osteoporosis and pharmaceutical compositions containing the same” (OCT INC., priority 2002, published 2006).
# Test system: osteoclast pregenitor cells
# Assay: Inhibition rates of furan derivatives versus osteoclast formation (TRAP staining)
# Assay type: cell-based, mice
# Settings: TRAP-positive multinucleated cells, untreated control set as 100%
# Procedure: First, bone marrow cells were isolated, as follow. After sacrificing 7-9 week female mice by cervical dislocation, femur and tibia were excised aseptically while removing attached soft tissues. After cutting both ends of long bones, 1 ml of an enzyme solution, containing 0.1% collagenase (Gibco), 0.05% trypsin and 0.5 mM EDTA (Gibco), was injected to the bone marrow cavity at one end using a syringe with a 26-guage needle, and bone marrow was then collected. After shaking the recovered bone marrow for 30 min, bone marrow cells were collected, and cultured in α-minimum essential medium (α-MEM) supplemented with 10% FBS for 24 hrs. Then, non-adherent cells were collected, which are osteoclast pregenitors, aliquotted onto culture plates at a density of 2×10^5 cells per well, and cultured for 8 days in α-MEM supplemented with 20 ng/ml of macrophage-colony stimulating factor (M-CSF, Peprotech, USA) and 30 ng/ml RANKL (Peprotech, USA). During the 8 days of culturing, the cells were treated with the Compound 1. Thereafter, osteoclast formation was investigated by fixing the cultured cells and then carrying out TRAP staining, as described in the following Experimental Example 2.2. In addition, resorption activity of osteoclasts was investigated by measuring the absorption area after removing osteoclasts in cultures in calcium phosphate-coated plates, as described in Experimental Example 2.3, below.
# After cell culture, the adherent cells were washed with PBS, and TRAP staining was performed, as follows. After being fixed with citrate-acetate-formaldehyde for 5 min, the cells were incubated for 1 hr in acetate buffer (prewarmed at 37° C., pH 5.0) containing naphthol AS-BI phosphate, fast Garnet GBC and 7 mM tartrate buffer (pH 5.0). TRAP-positive multinucleated cells having 3 or more nuclei were considered as osteoclasts.
# Osteoclast pregenitor cells were isolated, and their differentiation to mature osteoclasts was induced, according to the same method as in the Experimental Example 2-1, while treated with each of the furan derivatives of the present invention. According to the same method as in the Experimental Example 2-2, TRAP staining performed, and TRAP-positive multinucleated cells were counted. An inhibition rate of each furan derivative against osteoclast formation was expressed as percentage, wherein the number of stained cells in a control not treated the furan derivative was arbitrarily set as 100% (Tables 14 to 16).
Structure (SMILES),"Inhibition rate against osteoclast formation, % (0.1 μM) [%]","Inhibition rate against osteoclast formation, % (1 μM) [%]","Inhibition rate against osteoclast formation, % (10 μM) [%]"
O=Cc1ccc(COC(=O)Cc2ccccc2)o1 [Compound 32],0,23.3,50
O=Cc1ccc(COC(=O)Cc2c(F)cccc2F)o1 [Compound 33],0,3.3,50
O=Cc1ccc(COC(=O)Cc2c(F)cccc2Cl)o1 [Compound 34],0,16.7,36.7
O=Cc1ccc(COC(=O)Cc2cccc(Cl)c2)o1 [Compound 35],0,23.33,43.33
O=Cc1ccc(COC(=O)Cc2ccsc2)o1 [Compound 36],0,6.67,30
O=Cc1ccc(COC(=O)Cc2cccc(F)c2)o1 [Compound 37],0,10,6.67
O=Cc1ccc(COC(=O)Cc2ccc3ccccc3c2)o1 [Compound 38],0,23.33,20
O=Cc1ccc(COC(=O)Cc2ccc(F)cc2F)o1 [Compound 39],0,10,56.67
O=Cc1ccc(COC(=O)C(c2ccccc2)(c2ccccc2)c2ccccc2)o1 [Compound 40],0,16.67,43.33
COc1cccc(F)c1CC(=O)OCc1ccc(C=O)o1 [Compound 41],0,6.67,56.67
COc1ccc(F)c(CC(=O)OCc2ccc(C=O)o2)c1 [Compound 42],0,23.33,53.33
O=Cc1ccc(COC(=O)Nc2cccc(Cl)c2)o1 [Compound 49],0,10,0
O=Cc1ccc(COC(=O)Nc2ccc(Br)cc2)o1 [Compound 50],0,10,0
CCCCNC(=O)OCc1ccc(C=O)o1 [Compound 53],0,10,36.67
O=Cc1ccc(COC(=O)Nc2ccc(Cl)c(Cl)c2)o1 [Compound 54],0,0,10
O=Cc1ccc(COC(=O)Nc2ccccc2Cl)o1 [Compound 55],0,20,20
C=CCc1ccc(OCc2ccc(C(=O)OC)o2)c(OC)c1 [Compound 59],0,0,15.95
COC(=O)c1ccc(COc2ccc(Cl)cc2Cl)o1 [Compound 60],0,0,32.75
COC(=O)c1ccc(COc2ccccc2Cl)o1 [Compound 61],0,0,11.66
COC(=O)c1ccc(COc2ccc(Cl)cc2[N+](=O)[O-])o1 [Compound 66],0,0,13.58
COC(=O)c1ccc(COc2ccccc2[N+](=O)[O-])o1 [Compound 67],0,0,15.92

Structure (SMILES),"Inhibition rate against osteoclast formation, % (0.1 μM) [%]","Inhibition rate against osteoclast formation, % (1 μM) [%]","Inhibition rate against osteoclast formation, % (10 μM) [%]"
COC(=O)c1ccc(COc2cc(C)ccc2C(C)C)o1 [Compound 68],0,0,
COC(=O)c1ccc(COc2ccc3c(c2)CCC3)o1 [Compound 70],0,0,3.34
COC(=O)c1ccc(COc2ccc(Cl)c(C)c2)o1 [Compound 75],0,0,0.78
COC(=O)c1ccc(COc2ccc(I)cc2)o1 [Compound 79],0,0,34.65
COC(=O)c1ccc(COc2ccc(Cl)cc2)o1 [Compound 80],0,0,15.19
COC(=O)c1ccc(CN(C)C)o1 [Compound 85],0,0,3.75
COC(=O)c1ccc(CNc2ccccc2)o1 [Compound 89],0,0,12.6
COC(=O)c1ccc(CNC(C)(C)C)o1 [Compound 91],0,0,9.89
COc1ccccc1OCc1ccc(C(=O)OC(C)C)o1 [Compound 94],0,0,5.9
CC(C)OC(=O)c1ccc(COc2cc(Cl)ccc2Cl)o1 [Compound 95],0,0,0.97
COc1ccccc1OCc1ccc(C(=O)Oc2ccc(Cl)cc2)o1 [Compound 97],0,0,12.75
O=C(Oc1ccccc1)c1ccc(COc2ccccc2Cl)o1 [Compound 98],0,0,9.89
CCCc1ccc(OCc2ccc(C(=O)O)o2)cc1 [Compound 100],0,0,10.46
O=C(O)c1ccc(COc2ccc(F)cc2)o1 [Compound 102],0,0,5.05
O=C(O)c1ccc(COc2ccc(Br)cc2)o1 [Compound 103],0,0,2.77
O=C(O)c1ccc(COc2ccccc2Cl)o1 [Compound 107],0,0,32
O=C(O)c1ccc(COc2ccccc2Br)o1 [Compound 108],0,0,14.72
O=C(O)c1ccc(COc2cc(Cl)ccc2Cl)o1 [Compound 109],0,0,3.25
O=C(O)c1ccc(COc2cccc(Cl)c2)o1 [Compound 112],0,0,7.79
CC(C)c1ccc(OCc2ccc(C(=O)O)o2)cc1 [Compound 114],0,0,4.2
O=C(O)c1ccc(COc2cccc3ccccc23)o1 [Compound 117],0,0,5.86
